Measurements: US10167261B2, “2-oxo-3,4-dihydroquinolin-6-yl sulphonamide CPDS and their use as plant growth regulators” (THE REGENTS OF THE UNIVERSITY OF CALIFORNIA, priority 2014, dated 2019)

Assays:
Arabidopsis seeds = assay: Arabidopsis germination inhibition analysis; format: in vivo; conditions: assessed after 3 days at 22° C. in the dark
Description: To analyse the effect of compounds on inhibition of germination, Arabidopsis seeds after-ripened for about 4 weeks were surface-sterilized with a solution containing 5% NaClO and 0.05% Tween-20 for 10 minutes, and rinsed with water four times. Sterilized seeds were suspended with 0.1% agar and sowed on 0.8% solidified agar medium containing ½ Murashige and Skoog (MS) salts (Sigma-Aldrich) in the presence of the relevant treatment, stored at 4° C. for 4 days, and then transferred to 22° C. under the dark conditions. Germination was assessed after 3 days.

[1] = test system: soybean plants (variety S20-G7); assay: Water use (WU) of soybean plants after foliar spray; format: in vivo; conditions: repeated experiment (Table B2), rate not given; for Total % WU 0 to 2 DAA: cumulative
Description: Chemicals were tested for their effect on reducing plant water use (WU) after being applied by foliar sprays onto soybean plants (variety S20-G7)—grown in controlled environment plant growth chambers. All chemicals were applied using an emulsifiable concentrate (EC) formulation that was diluted with water containing additional surfactant (EXTRAVON 1 g/20 L) to the indicated concentrations. Plant WU was assessed by multiple pot weighing processes before and after application of the chemicals at the indicated times (expressed in days after application (DAA)). The WU data before application was used to correct for differences in water use due to non-treatment effects (e.g. due to differences in plant size). The results are expressed compared to negative control treatment (water with EXTRAVON 1 g/20 L).
Application of the chemicals (0 DAA) takes place approximately between 8 to 9:30 a.m. […] The cumulative total WU (0-2 DAA) is calculated by summing the WU data mentioned above.

PYR1-HAB1 = PYR1-HAB1 (Arabidopsis thaliana (Mouse-ear cress), UniProt O49686); assay: PP2C activity assay, PYR1-HAB1; format: biochemical; conditions: 100 nM PP2C, 200 nM PYR/PYL protein, 4-nitrophenyl phosphate substrate; read-out: IC50 of inhibition of PYR1-HAB1
Source text: (§1) The protein HAB1, a type 2 protein phosphatase (PP2C), is inhibited by PYR/PYL proteins in dependence of abscisic acid or other receptor agonists. The potency of a receptor agonists correlates with the level of inhibition of the PP2C, and therefore the IC50 (PYR1-HAB1) can be used to compare the relative activity of different chemical analogues. Since inhibition of PP2C correlates to inhibition of seed-germination and increase in plant water-use efficiency, it serves as a powerful tool to quantify biological potential of a chemical acting as an analogue of abscisic acid.
(§2) HAB1 and PYL proteins were expressed and purified as described in Park et al. ((2009) Science 324(5930):1068-1071), with minor modifications. To obtain GST-HAB1, the HAB1 cDNA was cloned into pGex-2T. Expression was conducted in BL21[DE3]pLysS host cells. Transformed cells were pre-cultured overnight, transferred to LB medium and cultured at 30° C. to culture A600 of ˜0.5.
(§3) The culture was then cooled on ice and MnCl2 added to 4 mM and IPTG added to 0.3 mM. After 16 hours incubation at 15° C., cells were harvested and recombinant proteins were purified on glutathione agarose as described in Park et al. To obtain 6×His-PYL receptor fusion proteins, expression constructs previously described by Okamoto et al. 2013, (PNAS 110(29): 12132-12137) were used. ABA receptors were expressed and purified as described above.
(§4) For the values shown in Table B5, PP2C activity assays using recombinant receptors and PP2Cs were carried out as follows: purified proteins were pre-incubated in 160 μl assay buffer containing 100 mM Tris-HCl-pH7.9, 100 mM NaCl, 3 μg bovine serum albumin, 0.1% 2-mercaptoethanol, 1 mM MnCl2 with ABA or agonists (compounds of the present invention) for 30 minutes at room temperature. Reactions were started by adding 40 μL of a reaction solution containing 25 mM 4-nitrophenyl phosphate in assay buffer after which absorbance measurements were immediately collected using a 405 nm on Wallac plate reader. Reactions contained 100 nM PP2C and 200 nM PYR/PYL proteins. […] For inferring IC50 values, calculations from receptor/PP2C assays containing different concentrations (ranging from 1 μM to 4 nM) were. The obtained dose response data was fit to a log (inhibitor) versus response-(variable slope) model using non-linear regression to infer the IC50s, using Graph Pad Prism 6.0.

[2] = test system: corn plants (variety NK OCTET); assay: Water use (WU) of corn plants after foliar spray; format: in vivo; conditions: foliar spray at 500 μM, vs negative control
PYL2-HAB1 = PYL2-HAB1 (Arabidopsis thaliana (Mouse-ear cress), UniProt O80992); assay: PP2C activity assay, PYL2-HAB1; format: biochemical; conditions: 100 nM PP2C, 200 nM PYR/PYL protein, 4-nitrophenyl phosphate substrate; read-out: IC50 of inhibition of PYL2-HAB1
Source text: as §1, §2, §3, §4

[3] = test system: corn plants (variety NK OCTET); assay: Water use (WU) of corn plants after foliar spray; format: in vivo; conditions: foliar spray at 500 μM, vs negative control; for Total % WU 0 to 2 DAA: cumulative
Description: Compounds were tested for their effect on reducing plant water use as follows. The compounds were applied by foliar spray to 12 day old corn plants (variety NK OCTET) grown in controlled environment plant growth chambers. All compounds were applied using an emulsifiable concentrate (EC) formulation that was diluted to the desired concentrations with water containing 0.4% of the adjuvant rape seed methyl ester. Plant water use during the day was assessed by repeated weighing of the pots in which the plants were grown before and after application of the compounds at the indicated times (expressed in days after application (DAA)). The water use data before application was used to correct any differences in water use arising due to non-treatment effects (e.g. due to differences in plant size). The untransformed water use values were subjected to an analysis of covariance, fitting the effect of treatment and using the baseline water use 1 day before application as a covariate. Application of the chemicals (0 DAA) takes place approximately between 8 to 9:30 a.m. WU is measured within day time (chamber light is on 6:00 to 20:00) at these timepoints: 0 DAA AM (10:30-12:50) and 0 DAA PM (14:00-19:50), 1 DAA AM (7:30-12:50) and 1 DAA PM (14:00-19:50) and 2 DAA AM (7:30-12:50). The cumulative total WU (0-2 DAA) is calculated by summing the WU data mentioned above.

Sequence of PYR1-HAB1 (O49686 whole entry, looked up): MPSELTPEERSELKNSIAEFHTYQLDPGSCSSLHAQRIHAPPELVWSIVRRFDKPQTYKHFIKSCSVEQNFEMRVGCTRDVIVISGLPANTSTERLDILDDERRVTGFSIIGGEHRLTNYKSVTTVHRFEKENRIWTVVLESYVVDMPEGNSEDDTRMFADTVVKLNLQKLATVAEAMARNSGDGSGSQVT
Sequence of PYR1-HAB1 (Q9CAJ0 whole entry partner, looked up): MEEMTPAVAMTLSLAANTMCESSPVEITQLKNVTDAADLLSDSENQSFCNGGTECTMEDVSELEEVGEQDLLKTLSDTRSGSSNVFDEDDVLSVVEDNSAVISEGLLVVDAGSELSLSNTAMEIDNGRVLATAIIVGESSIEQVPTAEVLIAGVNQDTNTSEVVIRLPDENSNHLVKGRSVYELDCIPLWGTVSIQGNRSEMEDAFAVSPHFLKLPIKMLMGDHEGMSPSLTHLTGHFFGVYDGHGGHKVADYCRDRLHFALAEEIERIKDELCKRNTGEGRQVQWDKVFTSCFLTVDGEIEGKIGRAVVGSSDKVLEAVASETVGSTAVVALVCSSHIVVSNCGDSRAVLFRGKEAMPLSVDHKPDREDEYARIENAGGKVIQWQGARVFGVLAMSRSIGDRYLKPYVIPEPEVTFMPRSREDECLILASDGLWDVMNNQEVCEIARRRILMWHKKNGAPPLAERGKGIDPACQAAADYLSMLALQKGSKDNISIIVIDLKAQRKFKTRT
Sequence of PYL2-HAB1 (O80992 whole entry, looked up): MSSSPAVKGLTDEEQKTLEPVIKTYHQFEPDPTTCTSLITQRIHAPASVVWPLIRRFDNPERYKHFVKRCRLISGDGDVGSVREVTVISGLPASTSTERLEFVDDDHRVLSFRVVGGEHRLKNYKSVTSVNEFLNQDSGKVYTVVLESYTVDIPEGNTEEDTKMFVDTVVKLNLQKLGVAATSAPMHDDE
Sequence of PYL2-HAB1 (Q9CAJ0 whole entry partner, looked up): as the sequence (Q9CAJ0 whole entry partner, looked up) above

Row | SMILES | % germination at 1 μM (Arabidopsis seeds) [%] | % germination at 5 μM (Arabidopsis seeds) [%] | % WU 2 DAA PM [1] [%] | Total % WU 0 to 2 DAA [1] [%] | IC50 (PYR1-HAB1) [nM] | % WU 2 DAA PM [2] [%] | IC50 (PYL2-HAB1) [nM] | Total % WU 0 to 2 DAA [3] [%] | % WU 0 DAA AM [3] [%] | % WU 0 DAA PM [3] [%] | % WU 1 DAA AM [3] [%] | % WU 1 DAA PM [3] [%] | % WU 2 DAA AM [3] [%]
1 | CCCN1C(=O)CCc2cc(NS(=O)(=O)Cc3ccc(C4CC4)cc3)ccc21 [drawing 29] | 42 | 0 | – | – | – | – | – | – | – | – | – | – | –
2 | CCN1C(=O)CCc2cc(NS(=O)(=O)Cc3ccc(C4CC4)cc3)cc(F)c21 [Compound 1.213, 1-(4-cyclopropylphenyl)-N-(1-ethyl-8-fluoro-2-oxo-3,4-dihydroquinolin-6-yl)methanesulfonamide] | – | – | −38.7 | −45.8 | 21 | −7 | 244 | −11.4 | −18.2 | −15.5 | −13.4 | −11.2 | −7.9
3 | CCCN1C(=O)CCc2cc(NS(=O)(=O)Cc3ccc(C4CC4)cc3)ccc21 [Compound 1.004, 1-(4-cyclopropylphenyl)-N-(2-oxo-1-propyl-3,4-dihydroquinolin-6-yl)methanesulfonamide] | – | – | −12.9 | −25 | 51 | −10.2 | 177 | −11.8 | −17.9 | −12.4 | −12.4 | −12.1 | −9.8
4 | CCCN1C(=O)CCc2cc(NS(=O)(=O)Cc3ccc(C)cc3)ccc21 [drawing 28, reference compound] | 46 | 0 | – | – | – | – | – | – | – | – | – | – | –
